Patent publication US10865236B2, “Bispecific antigen-binding molecules that bind a staphylococcus target antigen and a complement component and uses thereof” (priority 2017, dated 2020)

Tested on: S. aureus MW2
Test: Mouse MRSA bacteremia model: bispecific antibody alone or in combination with linezolid, kidney, lung and heart burden Day 4
Format: in vivo, Humanized C1q (C1q^Hu/Hu) mice
Experimental: The bacteremia model described above in Example 12 was used to evaluate the activity of an anti-IsdB× anti-C1q bispecific antibody against S. aureus MRSA strains in reducing bacterial burden when used in combination with a standard-of-care antibiotic.
Humanized C1q (C1q^Hu/Hu) mice were infected intraperitoneally with 1.3×10^8 colony forming units (CFUs) per mouse of S. aureus MW2 in a volume of 200 ul. S. aureus MW2 was grown to log phase, OD600≤1, in TSB at 37° C. and washed 3 times in PBS and adjusted to the desired density for infection. Starting at eighteen (18) hours following infection, 2 groups of mice (n=5) were treated with 80 mg/kg of linezolid by oral gavage (200 ul volume), twice daily on Days 1, 2 and 3. […] Mice were weighed daily until Day 4 post infection and change in weight was recorded. Mice were euthanized on Day 4 and kidneys, lungs and hearts were collected to determine organ burden. Briefly, the organs were homogenized in 5 mL PBS using gentleMACS Octo Dissociator (Miltenyi Biotec) using programme-E. The tissue homogenates were then diluted in PBS and multiple 10-fold serial dilutions were plated on LB agar plates and incubated at 37° C. overnight. The next day, individual colonies were counted to determine bacterial burden and results were reported as CFUs/gram tissue.

CC(=O)NC[C@H]1CN(c2ccc(N3CCOCC3)c(F)c2)C(=O)O1 [linezolid, reference compound]
log reduction in overall CFUs, lung (MW2): 2 log
log reduction in overall CFUs, kidneys (MW2, compared to infection control (8.5 logs)): less than 2 log
log CFU reduction, heart (MW2, limit of detection 10^3 CFU): 3 log
CFUs/g heart (single agent (H1H20631D 100 ug/mouse, Antibiotic None; or Linezolid, no antibody), heart): 2.08E+05 CFUs/g
CFUs/g kidney (single agent (H1H20631D 100 ug/mouse, Antibiotic None; or Linezolid, no antibody), kidney): 6.99E+06 CFUs/g
CFUs/g lung (single agent (H1H20631D 100 ug/mouse, Antibiotic None; or Linezolid, no antibody), lung): 6.98E+05 CFUs/g
